Calls of active or inactive are those of the source. No cut-off for these calls is given here.
Tests used:
Assay type in all cases: functional, cell-based
[1] = molecular target: Lysophosphatidic acid receptor 1 (Homo sapiens) (UniProt Q92633); assay: Antagonist activity at human LPA1R expressed in Chem-1 cells assessed as inhibition of lysophosphatidic acid-induced calcium mobilization at 30 uM by FLIPR assay
[2] = molecular target: T1, Lysophosphatidic acid receptor 3 (Homo sapiens) (UniProt Q9UBY5); assay: Antagonist activity at human LPA3R expressed in Chem-1 cells assessed as inhibition of lysophosphatidic acid-induced calcium mobilization at 30 uM by FLIPR assay
T1 sequence (whole entry): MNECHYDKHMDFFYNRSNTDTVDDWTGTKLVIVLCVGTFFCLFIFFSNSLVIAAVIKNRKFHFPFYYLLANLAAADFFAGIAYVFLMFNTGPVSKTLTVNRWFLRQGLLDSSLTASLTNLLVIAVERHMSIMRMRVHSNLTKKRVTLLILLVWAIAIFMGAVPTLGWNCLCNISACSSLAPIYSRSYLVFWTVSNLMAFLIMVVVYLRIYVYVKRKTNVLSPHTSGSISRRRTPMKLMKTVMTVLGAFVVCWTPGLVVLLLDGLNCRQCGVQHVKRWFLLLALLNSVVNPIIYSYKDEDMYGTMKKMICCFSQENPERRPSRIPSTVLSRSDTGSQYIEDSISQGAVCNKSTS

[3] = Antiproliferative activity against human NHLF cells assessed as inhibition of lysophosphatidic acid-induced proliferation by BrdU incorporation assay
[4] = molecular target: T1, Lysophosphatidic acid receptor 3 (Homo sapiens); assay: Antagonist activity at human LPA3R expressed in Chem-1 cells assessed as inhibition of lysophosphatidic acid-induced calcium mobilization by FLIPR assay

Chain of Lysophosphatidic acid receptor 1 (Homo sapiens) (Q92633 whole entry): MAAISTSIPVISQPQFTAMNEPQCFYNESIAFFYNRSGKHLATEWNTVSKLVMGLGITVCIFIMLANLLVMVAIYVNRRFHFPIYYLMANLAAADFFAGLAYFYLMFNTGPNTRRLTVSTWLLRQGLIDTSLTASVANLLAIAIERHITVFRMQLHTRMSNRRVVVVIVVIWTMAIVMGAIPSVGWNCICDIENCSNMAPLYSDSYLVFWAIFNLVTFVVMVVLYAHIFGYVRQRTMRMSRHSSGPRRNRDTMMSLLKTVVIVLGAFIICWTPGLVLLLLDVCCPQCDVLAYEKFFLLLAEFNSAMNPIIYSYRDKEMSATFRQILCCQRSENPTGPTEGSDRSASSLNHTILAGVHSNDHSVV

COc1cc(F)ccc1C(=O)/C(=N\C1CCCC1)n1ncc(C#N)c1N gave an inhibition [1] of 49% and an inhibition [2] of 3%.
Compound COc1ccc(C(=O)/C(=N\C2CCCC2)n2ncc(C#N)c2N)c(OC)c1 has an inhibition [1] of 98%, an IC50 [3] of 29 nM and an inhibition [2] of 23%.
In the case of COc1cc(OC)c(C(=O)/C(=N\C2CCCC2)n2ncc(C#N)c2N)cc1OC, the inhibition [1] is reported as 79% and the inhibition [2] is reported as 8%.
COc1ccc(C(=O)/C(=N\C(C)C)n2ncc(C#N)c2N)c(OC)c1 showed an inhibition [1] of 88%, an IC50 [3] of 27 nM and an inhibition [2] of 25%.
For COc1ccc(-c2[nH]c3c(C#N)cnn3c2NC2CCCC2)c(OC)c1, the inhibition [4] was “inactive”.
With COc1ccc(C(=O)/C(=N\C2CCCCC2)n2ncc(C#N)c2N)c(OC)c1 the inhibition [1] was 85%, the IC50 [3] was 3870 nM and the inhibition [2] was 30%.
In the case of COc1cc2c(cc1C(=O)/C(=N\C1CCCC1)n1ncc(C#N)c1N)CCC2, the inhibition [1] is reported as 78% and the inhibition [2] is reported as 19%.
With N#Cc1cnn(/C(=N/C2CCCC2)C(=O)c2ccc(Br)cc2)c1N the inhibition [1] was 96% and the inhibition [2] was 1%.
COc1ccc(C(=O)/C(=N\C2CCCC2)n2ncc(C#N)c2N)c(F)c1 showed an inhibition [1] of 100%, an IC50 [3] of 104 nM and an inhibition [2] of 4%.
Compound COc1cc(OCc2ccccc2)ccc1C(=O)/C(=N\C1CCCC1)n1ncc(C#N)c1N has an inhibition [1] of 48% and an inhibition [2] of 23%.
With COc1cc2ccccc2cc1C(=O)/C(=N\C1CCCC1)n1ncc(C#N)c1N the inhibition [1] was 78%, the IC50 [3] was 184 nM and the inhibition [2] was 2%.
Compound CCc1ccc(C(=O)/C(=N\C2CCCC2)n2ncc(C#N)c2N)cc1 has an inhibition [1] of 100%, an IC50 [3] of 533 nM and an inhibition [2] of 14%.
Work on COc1cc(C(=O)/C(=N\C2CCCC2)n2ncc(C#N)c2N)cc(OC)c1OC yielded an inhibition [1] of 13% and an inhibition [2] of 14%.

From ChEMBL document CHEMBL3351480, “Discovery of novel non-carboxylic acid 5-amino-4-cyanopyrazole derivatives as potent and highly selective LPA1R antagonists” (Bioorg Med Chem Lett, 2014)
